From patent US11716994B2, “Combinations of Yersinia entomophaga and pesticides or other substances” (priority 2017, dated 2023)
Values joined by “and” are separate entries in the source; they are usually repeats but may differ in a detail not shown here. Equal values may be shown once. Read-outs that look alike come from different tables or passages of the source.

Columns and labels:
fall armyworm = assay: Leaf disk mortality assay, Y. entomophaga cells with chemical insecticides; details: for LT50 (95% confidence intervals) / LT50 (95% confidence intervals) in days: 3rd instar; for LT50 Chem. / % Mort. Chem.: fall armyworm; for mortality at 19 µg/mL / mortality at 300 µg/mL: Spodoptera frugiperda, foliar
diamondback moth = assay: whole plant or invertebrate; details: for LT50 Chem. / % Mort. Chem.: Diamondback moth; for LT50 (95% confidence intervals) in days: Probit analysis
Source text: (§1) These were set to dry for 1 hr.
as §1
These were set to dry for 1 hr. Cabbage disks were then dipped in either 1% Luria broth (LB) media solution (controls and thiacloprid alone treatments) or in 1% cell free filtrate from a culture Y. entomophaga isolate O24G3R (Y. entomophaga alone or in combination with thiacloprid treatments).

black cutworm = assay: Leaf disk mortality assay, Y. entomophaga cells with chemical insecticides; details: black cutworm

CC1(C)[C@H](C(=O)O[C@H](C#N)c2cccc(Oc3ccccc3)c2)[C@@H]1/C=C(\Cl)C(F)(F)F (racemic) [λ-cyhalothrin]
LT50 (95% confidence intervals) (fall armyworm; λ-cyhalothrin […], isolate O43NEW 1×10^5 cfu/mL): 5.20 days | LT50 Chem. (fall armyworm; λ-cyhalothrin alone […]): 5.20 days

CCOP(=S)(OCC)Oc1nc(Cl)c(Cl)cc1Cl [Chlorpyrifos]
LT50 (95% confidence intervals) (diamondback moth; 2nd instar diamondback moth, chlorpyrifos 3.8 mg/L, O43NEW filtrate 1%, alone or combined): 3.72 days | LT50 Chem. (diamondback moth; chlorpyrifos 3.8 mg/L): 3.72 days | % Mort. Chem. (diamondback moth; chlorpyrifos 3.8 mg/L, 4 DAT): 74% | mortality at 3.8 µg/mL (diamondback moth; Plutella xylostella, foliar, 96 h, read-out: % Mortality (4DAT), 2nd instar diamondback moth, chlorpyrifos 3.8 mg/L, O43NEW filtrate 1%, alone or combined, 4 DAT, Abbott's corrected): 74% | LT50 (95% confidence intervals) in days (fall armyworm; chlorpyrifos 19 mg/L, isolate O24G3R 1×10^5 cfu/mL): 8.02 (7.22-8.91) days | LT50 (95% confidence intervals) in days (fall armyworm; chlorpyrifos 19 mg/L, isolate O24KEK 1×10^5 cfu/mL): 8.02 (7.22-8.91) days | LT50 (95% confidence intervals) in days (fall armyworm; chlorpyrifos 19 mg/L, isolate O43NEW 1×10^5 cfu/mL): 6.83 (6.09-7.66) days | LT50 (95% confidence intervals) (fall armyworm; chlorpyrifos 19 mg/L, isolate O333A4 1×10^5 cfu/mL): 8.02 days | mortality at 19 µg/mL (fall armyworm; 72 h, read-out: % Mortality (3DAT), 3rd instar, chlorpyrifos 19 mg/L, isolate O43NEW 1×10^5 cfu/mL): 40% | mortality at 19 µg/mL (fall armyworm; 96 h, read-out: % Mortality (4DAT), 3rd instar, chlorpyrifos 19 mg/L, isolate O43NEW 1×10^5 cfu/mL): 45% | mortality at 19 µg/mL (fall armyworm; 96 h, read-out: % Mortality (4DAT), 3rd instar, chlorpyrifos 19 mg/L, isolate O333A4 1×10^5 cfu/mL): 35% | mortality at 19 µg/mL (fall armyworm; 120 h, read-out: % Mortality (5DAT), 3rd instar, chlorpyrifos 19 mg/L, isolate O24G3R 1×10^5 cfu/mL): 35% | mortality at 19 µg/mL (fall armyworm; 120 h, read-out: % Mortality (5DAT), 3rd instar, chlorpyrifos 19 mg/L, isolate O333A4 1×10^5 cfu/mL): 35% | mortality at 19 µg/mL (fall armyworm; 144 h, read-out: % Mortality (6DAT), 3rd instar, chlorpyrifos 19 mg/L, isolate O24G3R 1×10^5 cfu/mL): 35% | mortality at 19 µg/mL (fall armyworm; 144 h, read-out: % Mortality (6DAT), 3rd instar, chlorpyrifos 19 mg/L, isolate O24KEK 1×10^5 cfu/mL): 35% | mortality at 19 µg/mL (fall armyworm; 144 h, read-out: % Mortality (6DAT), 3rd instar, chlorpyrifos 19 mg/L, isolate O333A4 1×10^5 cfu/mL): 35% | mortality at 19 µg/mL (fall armyworm; 168 h, read-out: % Mortality (7DAT), 3rd instar, chlorpyrifos 19 mg/L, isolate O24G3R 1×10^5 cfu/mL): 40% | mortality at 19 µg/mL (fall armyworm; 168 h, read-out: % Mortality (7DAT), 3rd instar, chlorpyrifos 19 mg/L, isolate O24KEK 1×10^5 cfu/mL): 40% | mortality at 19 µg/mL (fall armyworm; 168 h, read-out: % Mortality (7DAT), 3rd instar, chlorpyrifos 19 mg/L, isolate O333A4 1×10^5 cfu/mL): 40% | % Mort. Chem. (fall armyworm; Chlorpyrifos 19 mg/L, 3 DAT): 40% | % Mort. Chem. (fall armyworm; Chlorpyrifos 19 mg/L, 5 DAT): 35% | % Mort. Chem. (fall armyworm; Chlorpyrifos 19 mg/L, 6 DAT (row with O24KEK)): 35% | % Mort. Chem. (fall armyworm; Chlorpyrifos 19 mg/L, 6 DAT (row with O333A4)): 35% | LT50 Chem. (fall armyworm; Chlorpyrifos alone 19 mg/L): 6.83 days and 8.02 days

Cc1cc(C(F)(C(F)(F)F)C(F)(F)F)ccc1NC(=O)c1cccc(I)c1C(=O)NC(C)(C)CS(C)(=O)=O [Flubendiami-de]
LT50 Chem. (black cutworm; Flubendiami-de alone 0.2 mg/L): 4.83 days | LT50 Chem. (black cutworm; Flubendiami-de alone 0.59 mg/L): 4.99 days

CCOC(=O)OC1=C(c2cc(C)ccc2C)C(=O)N[C@]12CC[C@@H](OC)CC2 [Spirotetramat]
LT50 (95% confidence intervals) in days (diamondback moth; 2nd instar diamondback moth, spirotetramat 30 mg/L, 1% O24G3R filtrate): 23.41 (19.1-28.86) days | LT50 (95% confidence intervals) in days (diamondback moth; 2nd instar diamondback moth, spirotetramat 30 mg/L, 1% O43NEW filtrate): 21.02 (16.86-26.76) days | % Mort. Chem. (diamondback moth; spirotetramat 30 mg/L, 6 DAT, O43NEW experiment): 11% | % Mort. Chem. (diamondback moth; spirotetramat 30 mg/L, 10 DAT, O24G3R experiment): 0% | LT50 Chem. (diamondback moth; spirotetramat 30 mg/L, O24G3R experiment): 23.41 days | LT50 Chem. (diamondback moth; spirotetramat 30 mg/L, O43NEW experiment): 21.02 days | mortality at 30 µg/mL (diamondback moth; Plutella xylostella, foliar, 96 h, read-out: % Mortality (4DAT), diamondback moth, spirotetramat 30 mg/L, 1% O43NEW filtrate, 4 DAT, Abbott's corrected): 5% | mortality at 30 µg/mL (diamondback moth; Plutella xylostella, foliar, 120 h, read-out: % Mortality (5DAT), diamondback moth, spirotetramat 30 mg/L, 1% O43NEW filtrate, 5 DAT, Abbott's corrected): 5% | mortality at 30 µg/mL (diamondback moth; Plutella xylostella, foliar, 144 h, read-out: % Mortality (6DAT), diamondback moth, spirotetramat 30 mg/L, 1% O24G3R filtrate, 6 DAT, Abbott's corrected): 0% | mortality at 30 µg/mL (diamondback moth; Plutella xylostella, foliar, 144 h, read-out: % Mortality (6DAT), diamondback moth, spirotetramat 30 mg/L, 1% O43NEW filtrate, 6 DAT, Abbott's corrected): 11% | mortality at 30 µg/mL (diamondback moth; Plutella xylostella, foliar, 168 h, read-out: % Mortality (7DAT), diamondback moth, spirotetramat 30 mg/L, 1% O43NEW filtrate, 7 DAT, Abbott's corrected): 16% | mortality at 30 µg/mL (diamondback moth; Plutella xylostella, foliar, 240 h, read-out: % Mortality (10DAT), diamondback moth, spirotetramat 30 mg/L, 1% O24G3R filtrate, 10 DAT, Abbott's corrected): 0% | mortality at 30 µg/mL (diamondback moth; Plutella xylostella, foliar, 264 h, read-out: % Mortality (11DAT), diamondback moth, spirotetramat 30 mg/L, 1% O24G3R filtrate, 11 DAT, Abbott's corrected): 0% | mortality at 30 µg/mL (diamondback moth; Plutella xylostella, foliar, 336 h, read-out: % Mortality (14DAT), diamondback moth, spirotetramat 30 mg/L, 1% O24G3R filtrate, 14 DAT, Abbott's corrected): 0% | LT50 (95% confidence intervals) in days (fall armyworm; spirotetramat 300 mg/L, isolate O43NEW 1×10^5 cfu/mL): 10.29 (9.39-11.29) days | mortality at 300 µg/mL (fall armyworm; 144 h, read-out: % Mortality (6DAT), 3rd instar, spirotetramat 300 mg/L, isolate O43NEW 1×10^5 cfu/mL): 6% | mortality at 300 µg/mL (fall armyworm; 168 h, read-out: % Mortality (7DAT), 3rd instar, spirotetramat 300 mg/L, isolate O43NEW 1×10^5 cfu/mL): 13% | % Mort. Chem. (fall armyworm; Spirotetramat 300 mg/L, 6 DAT): 6% | LT50 Chem. (fall armyworm; Spirotetramat alone 300 mg/L): 10.29 days
